In assay [1] the test system is HeLa cells. Briefly: Photodynamic therapy efficiency to HeLa cells, MTT method (Example 16). It is filed as cell-based. Particulars: 5-20 μM, 30 min in darkness, xenon lamp white light 5 min. A general note: Tetrazolium assays rely on reduction of a dye to a coloured formazan, in cell work by metabolically active cells.
For assay [2], the system named is Ribonucleic acid (RNA). The experiment in a line: Specific fluorescence recognition of biomolecules in solution (Example 13). It is filed as binding. Particulars: 2 μM probe. The method, then:
After interaction for 5 min, the fluorescence spectra under excitation at 500 nm were measured, and the fluorescence intensities at 600 nm were recorded. Biomolecules include: Ribonucleic acid (RNA, 1.6 mM), deoxyribonucleic acid (DNA, 1.6 mM), amino acids (10 mM), hydrogen peroxide (10 mM), and metal ions (10 mM); in which, the amino acids include: Glutathione (GSH), homocysteine (Hcy), cysteine (Cys), glycine […], alanine (Ala), norvaline (Nor), glutamate (Glu), histidine (his), isoleucine (Iso), leucine (Leu), methionine (Met), phenylalanine (Phe), proline (Pro), serine (Ser), threonine (Thr), tryptophan (Try), and tyrosine (Tyr); and the metal ions include: Ca^2+, Fe^3+, Mg^2+, and Zn^2+.

Assay [3] has as its system HeLa cells. Briefly: Reactive oxygen species in HeLa cells before and after photodynamic therapy, DCFH-DA (Example 9). To be noted: 10 μM probe, 10 μM DCFH-DA, mercury lamp 510-560 nm, 3 min. It is filed as cell-based. The method, then:
The glass-bottom cell culture dishes covered with HeLa cells prepared in Example 2 were washed three times with PBS, then incubated with 10 μM DCFH-DA in a CO2 incubator in darkness for 30 min. […] The stained cells were observed under a confocal laser scanning microscope, and the fluorescence distribution and intensity changes in the cells before and after the photodynamic therapy (irradiated with mercury lamp at 510-560 nm) were recorded.

For assay [4], the system named is HeLa cells. The experiment in a line: Fluorescence imaging of live HeLa cells stained with the probe, before and after light irradiation (Example 3). The format is cell-based. To be noted: 10 μM. The method, then:
The following three groups of experiments were performed: (1) The cells were stained in darkness for 30 min, and then irradiated by a white light of the mercury lamp for 5 min; (2) The cells were stained in darkness for 30 min, without light irradiation. (1) The cells were stained in darkness for 10 min. (2) The cells were stained in darkness for 30 min. (3) The cells were stained in darkness for 60 min. (4) The cells were stained in darkness for 120 min. (1) The cells were stained for 30 min, and then irradiated by light at 510-560 nm for 10 seconds. (2) The cells were stained for 30 min, and then irradiated by light at 510-560 nm for 1 minute. (3) The cells were stained for 30 min, and then irradiated by light at 510-560 nm for 2 min. (4) The cells were stained for 30 min, and then irradiated by light at 510-560 nm for 3 min. (5) The cells were stained for 30 min, and then irradiated by light at 510-560 nm for 4 min. (6) The cells were stained for 30 min, and then irradiated by light at 510-560 nm for 5 min. The stained cells were observed under a fluorescence microscope and a confocal laser scanning microscope and the stained regions, fluorescence distributions, and intensity changes in cells were recorded.

For `COc1ccc2[nH]cc(/C=C/c3cc[n+](C)c4ccccc34)c2c1.[I-]` [photosensitized probe 1, (E)-4-(2-(5-methoxy-1H-indole-3-)vinyl)-1-methylquinolinium iodide], the “cell viability after photodynamic therapy” value in assay [1] was “greatly reduced”. The “increase of fluorescence intensity after binding with ribonucleic acid compared with the probe itself” value in assay [2] (RNA 1.6 mM in PBS, 5 min, excitation 500 nm, emission 600 nm) is “more than 100 times”. Further, the “fluorescence with RNA compared with deoxyribonucleic acid” value in assay [2] (RNA 1.6 mM, DNA 1.6 mM) is listed as “significantly stronger than that of the probe after binding with deoxyribonucleic acid”. In assay [2] (amino acids, hydrogen peroxide, metal ions 10 mM), the “fluorescence response to other biomolecules” value is on record as “no obvious fluorescence response”. The “intensity of green fluorescence of DCFH-DA (reactive oxygen species level in the cells) after irradiation” value in assay [3] is “increases remarkably”. Besides, in assay [4] (darkness 10-120 min), the “fluorescence of live cells stained in darkness with increasing incubation time” value is “relatively weak red fluorescence only in the cytoplasm regions”. The “fluorescence with increasing light irradiation time” value in assay [4] (stained 30 min, 510-560 nm green light 10 s-5 min) is on record as “the fluorescence gradually increases”. For the same compound, the “fluorescence of live cells after light irradiation” value in assay [4] (stained 30 min, mercury lamp white light 5 min, 488 nm excitation) was “strong red fluorescence in the cytoplasm and nucleolus region”. Also, the “fluorescence of live cells without light irradiation” value in assay [4] (stained in darkness 30 min, 488 nm excitation, confocal) was “weak red fluorescence only in the cytoplasm region”.
